In patent US20230024302A1, “2,3,5-TRISUBSTITUTED PYRAZOLO[1,5-A]PYRIMIDINE COMPOUNDS” (Arcus Biosciences, Inc., priority 2019, published 2023) one finds IC50 data, which are given here for 6 molecules.

One assay has as its target T1, PI3Kγ (p120γ) (Homo sapiens, UniProt P48736).
T1 construct: purchased Promega V1761
Put plainly: Inhibition of PI3K kinase activity (ADP Glo), PI3Kγ. As to conditions: read-out: biochemical potency (PI3Kγ IC50). Put shortly: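 IC50 values come from a 4-parameter nonlinear fit of ADP-Glo luminescence, which measures ADP produced as PIP2 is phosphorylated to PIP3. The p120γ enzyme (2× stock 8 nM) sat with compound 1 h at rt before substrate (2× stocks: 50 μM ATP, 0.1 mg/ml PIP2) was added. Phosphorylation then proceeded 60 min at rt.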

A further assay concerns the target T2, PI3Kγ (Homo sapiens, UniProt P48736).
T2 construct: host or cells: THP-1
Put plainly: PI3Kγ cellular assay in THP-1 cells (AKT pS473 AlphaLISA). The format is cell-based. The method, boiled down:
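Endogenous AKT S473 phosphorylation, detected by AlphaLISA in lysates, serves as the PI3Kγ activity read-out in stimulated, serum-starved THP-1 cells (1.8×10^5/well).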

The mark [1] stands for this setting: Table 1, rhMCP-1 stimulated AKT pS473, read-out: cellular potency (PI3Kγ IC50).

SMILES strings stand for the structures. pIC50: −log10 of the molar value. Like-named read-outs stand apart in the source and are kept apart here. Some results are limits rather than exact numbers.

T1 sequence (P48736 whole entry): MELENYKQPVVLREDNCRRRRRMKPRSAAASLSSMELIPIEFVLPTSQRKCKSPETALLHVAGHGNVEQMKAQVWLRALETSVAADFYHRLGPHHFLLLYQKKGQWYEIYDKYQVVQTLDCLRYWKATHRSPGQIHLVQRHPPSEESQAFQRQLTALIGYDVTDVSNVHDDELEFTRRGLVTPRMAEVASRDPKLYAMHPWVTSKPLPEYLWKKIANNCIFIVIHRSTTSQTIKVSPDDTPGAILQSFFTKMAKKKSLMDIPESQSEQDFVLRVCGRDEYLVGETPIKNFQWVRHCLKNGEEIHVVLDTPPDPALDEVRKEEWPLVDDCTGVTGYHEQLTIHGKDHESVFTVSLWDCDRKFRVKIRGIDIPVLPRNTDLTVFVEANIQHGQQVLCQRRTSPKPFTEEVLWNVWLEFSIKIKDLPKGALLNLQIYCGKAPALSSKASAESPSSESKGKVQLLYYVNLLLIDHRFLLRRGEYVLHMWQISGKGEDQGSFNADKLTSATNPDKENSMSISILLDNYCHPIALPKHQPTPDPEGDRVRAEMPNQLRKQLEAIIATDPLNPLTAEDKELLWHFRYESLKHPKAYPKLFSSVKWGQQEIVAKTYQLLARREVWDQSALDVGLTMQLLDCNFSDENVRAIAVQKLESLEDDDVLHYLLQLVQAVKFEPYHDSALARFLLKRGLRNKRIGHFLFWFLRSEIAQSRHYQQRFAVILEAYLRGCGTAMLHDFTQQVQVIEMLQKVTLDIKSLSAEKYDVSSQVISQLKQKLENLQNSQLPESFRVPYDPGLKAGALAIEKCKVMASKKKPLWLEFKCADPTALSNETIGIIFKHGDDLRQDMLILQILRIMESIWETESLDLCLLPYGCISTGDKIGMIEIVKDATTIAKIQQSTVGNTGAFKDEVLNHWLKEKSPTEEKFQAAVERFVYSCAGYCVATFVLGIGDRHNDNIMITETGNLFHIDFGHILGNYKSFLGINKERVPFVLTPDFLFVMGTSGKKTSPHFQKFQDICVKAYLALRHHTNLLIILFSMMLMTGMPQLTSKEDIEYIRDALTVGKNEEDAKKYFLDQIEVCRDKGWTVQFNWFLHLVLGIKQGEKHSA
T2 sequence (P48736 whole entry): as above

Consider `Cc1cc(-c2ccn3nc(N)c(C(=O)N[C@H]4CC[C@@](C)(O)CC4)c3n2)cc2c1C(=O)N([C@@H](C)C1CC1)C2` [Example 2, 2-Amino-5-{2-[(1S)-1-cyclopropylethyl]-7-methyl-1-oxo-2,3-dihydro-1H-isoindol-5-yl}-N-[cis-4-hydroxy-4-methylcyclohexyl]pyrazolo[1,5-a]pyrimidine-3-carboxamide], for which the pIC50 was above 7.00 on PI3Kγ (p120γ) (Table 1, p120γ) and above 7.00 on PI3Kγ (setting [1]).

For the molecule `C[C@@H](C1CC1)N1Cc2cc(-c3ccn4nc(N)c(C(=O)N[C@H]5C[C@H](O)C5)c4n3)cc(C(F)(F)F)c2C1=O` [Example 65, 2-Amino-5-{2-[(1S)-1-cyclopropylethyl]-1-oxo-7-(trifluoromethyl)-2,3-dihydro-1H-isoindol-5-yl}-N-[trans-3-hydroxycyclobutyl]pyrazolo[1,5-a]pyrimidine-3-carboxamide], the pIC50 at PI3Kγ (p120γ) (Table 1, p120γ) was above 7.00; on PI3Kγ (setting [1]), above 7.00.

Take `CC(C)[C@H](CO)NC(=O)c1c(N)nn2ccc(-c3cc4c(c(OC(F)(F)F)c3)C(=O)N([C@@H](C)C3CC3)C4)nc12` [Example 25, 2-Amino-5-{2-[(1S)-1-cyclopropylethyl]-1-oxo-7-(trifluoromethoxy)-2,3-dihydro-1H-isoindol-5-yl}-N-[(2R)-1-hydroxy-3-methylbutan-2-yl]pyrazolo[1,5-a]pyrimidine-3-carboxamide]: the pIC50 on PI3Kγ (p120γ) (Table 1, p120γ) was above 7.00; on PI3Kγ (setting [1]) it was above 7.00.

For `C[C@@H](C1CC1)N1Cc2cc(-c3ccn4nc(N)c(C(=O)Nc5cncc(F)c5)c4n3)cc(C(F)(F)F)c2C1=O` [Example 351], the pIC50 on PI3Kγ (p120γ) (Table 3, p120γ) was above 7.00; at PI3Kγ (Table 3, rhMCP-1 stimulated AKT pS473, read-out: cellular potency (PI3Kγ IC50)) it was 6.00 to 7.00.

For `C[C@@H](C1CC1)N1Cc2cc(-c3ccn4nc(N)c(C(=O)N[C@H]5CC[C@H](N)CC5)c4n3)cc(OC(F)(F)F)c2C1=O` [Example 31, 2-Amino-5-{2-[(1S)-1-cyclopropylethyl]-1-oxo-7-(trifluoromethoxy)-2,3-dihydro-1H-isoindol-5-yl}-N-[trans-4-aminocyclohexyl]pyrazolo[1,5-a]pyrimidine-3-carboxamide], the negative-log IC50 (pIC50) on PI3Kγ (p120γ) (Table 1, p120γ) was above 7.00; on PI3Kγ (setting [1]), above 7.00.

Turning to `Cc1cc(-c2ccn3nc(N)c(C(=O)NC4(C#N)CC4)c3n2)cc2c1C(=O)N([C@@H](C)C1CC1)C2` [Example 268], the pIC50 is above 7.00 at PI3Kγ (p120γ) (Table 2, p120γ) and 6.00 to 7.00 on PI3Kγ (Table 2, rhMCP-1 stimulated AKT pS473, read-out: cellular potency (PI3Kγ IC50)).

One may read the pIC50 as −log10 of the IC50, conventionally taken in molar units.
